This is an account of results in PubChem BioAssay (NCI).

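Five concentrations, 48 hours, 96-well plates. GI50 = concentration required for 50% inhibition of growth. The concentration for full growth arrest is given as TGI.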

Some test systems named below: HT29 colon; SF-539 CNS; HOP-62 NSCLC; OVCAR-8 ovarian; IGROV1 ovarian; UACC-257 melanoma; HCT-15 colon; MCF7 breast; SN12C renal; CAKI-1 renal.
Experiment in all cases: inhibition of tumour cell growth, NCI panel, 48 h

In the case of `O=C(O)CCC(NC(=S)S)C(=O)O.[Na+].[Zn+2]` (stereo not given), the GI50 with HT29 colon, in the assay on SF-539 CNS, in the assay with HOP-62 NSCLC, in the assay with OVCAR-8 ovarian, in the assay with IGROV1 ovarian and in the assay on UACC-257 melanoma was greater than 50 µM in each case. Besides, the GI50 in the assay with HCT-15 colon, with MCF7 breast, in the assay on SN12C renal and with CAKI-1 renal was greater than 50 µM throughout. Moreover, the TGI in the assay on HT29 colon, in the assay on SF-539 CNS, in the assay on HOP-62 NSCLC, in the assay with OVCAR-8 ovarian, in the assay with IGROV1 ovarian and in the assay with UACC-257 melanoma was greater than 50 µM throughout. Also, the TGI in the assay on HCT-15 colon, in the assay with MCF7 breast, with SN12C renal and in the assay with CAKI-1 renal was greater than 50 µM in each case.

With `Cn1c([N+](=O)[O-])cnc1/C=C1\Oc2cc(Cl)ccc2C1=O`, the GI50 was 0.203 µM in the assay on HT29 colon; 1.71 µM in the assay on SF-539 CNS; 1.88 µM in the assay on HOP-62 NSCLC; 0.401 µM in the assay with OVCAR-8 ovarian; 0.783 µM in the assay with IGROV1 ovarian; 0.997 µM in the assay with UACC-257 melanoma. The GI50 is 0.267 µM with HCT-15 colon, 0.712 µM in the assay with MCF7 breast, 0.713 µM with SN12C renal and 0.296 µM with CAKI-1 renal. Also, the TGI was 0.657 µM in the assay with HT29 colon; 4.81 µM in the assay on SF-539 CNS; 6.07 µM in the assay with HOP-62 NSCLC; greater than 100 µM with OVCAR-8 ovarian; greater than 20.2 µM with IGROV1 ovarian; 4.99 µM with UACC-257 melanoma. The TGI was determined as 1.05 µM in the assay with HCT-15 colon, 13.3 µM with MCF7 breast, 6.65 µM in the assay with SN12C renal and 1.18 µM with CAKI-1 renal.

Take `CCSc1nc(N)c2cn[nH]c2n1`: the GI50 in the assay with HT29 colon was 29.4 µM; in the assay with SF-539 CNS it was 43.6 µM; with HOP-62 NSCLC, 49 µM; in the assay on OVCAR-8 ovarian it was 48.7 µM; in the assay with IGROV1 ovarian it was 35.9 µM; in the assay with UACC-257 melanoma, 71.1 µM. Further, the GI50 in the assay on HCT-15 colon is 41.7 µM; in the assay with MCF7 breast it was 23 µM; in the assay on SN12C renal it was 28.7 µM; in the assay with CAKI-1 renal, 22.3 µM. Further, the TGI in the assay on HT29 colon is 81.9 µM; in the assay on SF-539 CNS, greater than 100 µM; in the assay with HOP-62 NSCLC, greater than 100 µM; with OVCAR-8 ovarian, greater than 100 µM; with IGROV1 ovarian, greater than 100 µM; in the assay on UACC-257 melanoma, greater than 100 µM. The TGI is greater than 100 µM in the assay with HCT-15 colon, 60.3 µM in the assay on MCF7 breast, 70.9 µM in the assay on SN12C renal and 76 µM in the assay with CAKI-1 renal.

Take `NC(=O)c1cccc(Nc2nccc(Nc3cccc(F)c3)n2)c1`: the GI50 is 6.98 µM with HT29 colon; 11.3 µM in the assay with SF-539 CNS; 8.24 µM in the assay with HOP-62 NSCLC; 9.49 µM in the assay on OVCAR-8 ovarian; 6.21 µM in the assay on IGROV1 ovarian; 12.2 µM with UACC-257 melanoma. Also, the GI50 with HCT-15 colon was 7.69 µM; in the assay on MCF7 breast it was 11 µM; with SN12C renal, 7.98 µM; in the assay with CAKI-1 renal, 7.24 µM. In addition, the TGI with HT29 colon was greater than 25 µM; with SF-539 CNS, greater than 25 µM; with HOP-62 NSCLC it was greater than 22.5 µM; in the assay with OVCAR-8 ovarian, greater than 25 µM; with IGROV1 ovarian, greater than 21.1 µM; in the assay on UACC-257 melanoma, greater than 25 µM. Also, the TGI in the assay with HCT-15 colon, in the assay on MCF7 breast, with SN12C renal and in the assay on CAKI-1 renal was greater than 25 µM throughout.

Consider `O=C1C(SCCO)=C(SCCO)C(=O)c2ccccc21`, for which the TGI with HT29 colon was found to be 3.98 µM; in the assay with SF-539 CNS, 2.02 µM; with HOP-62 NSCLC, 3.77 µM; in the assay on OVCAR-8 ovarian it was 1.22 µM; in the assay with IGROV1 ovarian, 2.78 µM; with UACC-257 melanoma, 2.59 µM. Further, the TGI was 3.58 µM in the assay with HCT-15 colon, 2.36 µM in the assay on MCF7 breast, 3.06 µM in the assay with SN12C renal and 4.24 µM with CAKI-1 renal.

Regarding `CCN(CC)CCNC(=O)c1cn2ncnc(Oc3ccc(NC(=O)Nc4ccc(Cl)c(C(F)(F)F)c4)c(F)c3)c2c1C`, the GI50 in the assay on HT29 colon is 0.834 µM; in the assay on SF-539 CNS, 1.12 µM; in the assay with HOP-62 NSCLC, 1.88 µM; with OVCAR-8 ovarian, 1.95 µM; in the assay with IGROV1 ovarian it was 1.85 µM; with UACC-257 melanoma, 1.61 µM. Besides, the GI50 with HCT-15 colon was 1.46 µM; in the assay on MCF7 breast, 1.4 µM; in the assay with SN12C renal, 1.69 µM; in the assay with CAKI-1 renal, 1.69 µM. Besides, the TGI in the assay with HT29 colon came to 2.45 µM; in the assay with SF-539 CNS, 2.43 µM; in the assay on HOP-62 NSCLC, 3.72 µM; with OVCAR-8 ovarian, 3.96 µM; in the assay with IGROV1 ovarian, 3.5 µM; in the assay on UACC-257 melanoma, 3.18 µM. The TGI in the assay on HCT-15 colon was found to be 2.89 µM; with MCF7 breast, 3.15 µM; in the assay with SN12C renal, 3.4 µM; with CAKI-1 renal it was 3.13 µM.

Turning to `CC1CCCc2c1nn(C(=O)/C=C(\N)c1ccccc1)c2N` (stereo not given), the GI50 in the assay with HT29 colon is 16.8 µM; with SF-539 CNS, 17.7 µM; with HOP-62 NSCLC it was 8.49 µM; in the assay on OVCAR-8 ovarian, 8.5 µM; with IGROV1 ovarian it was 12.5 µM; with UACC-257 melanoma, 25.6 µM. For the same compound, the GI50 in the assay with HCT-15 colon was 5.85 µM; with MCF7 breast, 7.26 µM; in the assay on SN12C renal it was 8.13 µM; with CAKI-1 renal, 4.11 µM. In addition, the TGI in the assay with HT29 colon, with SF-539 CNS, in the assay with HOP-62 NSCLC, with OVCAR-8 ovarian, with IGROV1 ovarian and with UACC-257 melanoma was greater than 100 µM each time. Besides, the TGI in the assay with HCT-15 colon is greater than 100 µM; in the assay with MCF7 breast it was greater than 100 µM; with SN12C renal it was greater than 100 µM; in the assay on CAKI-1 renal, 15.4 µM.
